# Assay results as given in publication PMC7365090, “In crystallo-screening for discovery of human norovirus 3C-like protease inhibitors” (Journal of Structural Biology: X, 2020).
# Read-outs that look alike come from different tables or passages of the source.
# Molecular target: T1, SV3CP (Southampton norovirus 3CL^pro) (Southampton virus (serotype 3), UniProt Q04544)
# T1 construct: gene ORF1; mature 3C-like protease (NS6) cut from the ORF1 non-structural polyprotein; purified as in Hussey et al. 2011; mass 19,290 Da (intact); dimer in asymmetric unit, putative crystallographic tetramer
# T1 sequence (Q04544 1100-1280): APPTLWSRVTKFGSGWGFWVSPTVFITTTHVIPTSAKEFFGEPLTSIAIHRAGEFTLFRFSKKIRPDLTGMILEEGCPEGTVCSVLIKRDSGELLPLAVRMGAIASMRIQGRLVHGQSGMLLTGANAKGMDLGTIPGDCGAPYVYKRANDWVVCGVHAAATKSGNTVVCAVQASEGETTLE
# Assay: chromogenic protease assay, […] nm
# Type: biochemical
Compound,Ki [µM],Ki (read-out: Ki) [µM]
O=C(O)c1csc(-c2ccc(C(F)(F)F)cc2)n1 [J02],340,
Cc1ccc(CNc2cccc(C(=O)O)c2)s1 [J01],,370
